Experimental data: ChEMBL document CHEMBL3046247, “Anti-inflammatory and antioxidant activities of some extracts and pure natural products isolated from Rhus tripartitum (Ucria)” (Med Chem Res, 2010)

Legend:
Assay type in all cases: functional
[1] = Antioxidant activity assessed as inhibition of ABTS radical formation at 0.12 mg/ml measured at 5 min relative to trolox
Rattus norvegicus [2] = test: Anti-inflammatory activity in fasted Rattus norvegicus Wistar (rat) assessed as inhibition of carrageenan-induced paw edema at 0.5 mg/kg, ip administered 1 hr prior to carrageenan challenge measured at 5 hr relative to control; details: route intraperitoneal
[3] = Antioxidant activity assessed as inhibition of ABTS radical formation at 1 mg/ml measured at 5 min relative to trolox
[4] = Antioxidant activity assessed as inhibition of ABTS radical formation at 0.03 mg/ml measured at 15 min relative to trolox
[5] = Antioxidant activity assessed as inhibition of ABTS radical formation at 0.06 mg/ml measured at 5 min relative to trolox
Rattus norvegicus [6] = test: Anti-inflammatory activity in fasted Rattus norvegicus Wistar (rat) assessed as inhibition of carrageenan-induced paw edema at 1 mg/kg, ip administered 1 hr prior to carrageenan challenge measured at 5 hr relative to control; details: route intraperitoneal
[7] = Antioxidant activity assessed as inhibition of ABTS radical formation at 1 mg/ml measured at 10 min relative to trolox
[8] = Antioxidant activity assessed as inhibition of ABTS radical formation at 0.5 mg/ml measured at 5 min relative to trolox
[9] = Antioxidant activity assessed as inhibition of ABTS radical formation at 0.03 mg/ml measured at 10 min relative to trolox
[10] = Antioxidant activity assessed as inhibition of ABTS radical formation at 0.03 mg/ml measured at 20 min relative to trolox
[11] = Antioxidant activity assessed as inhibition of ABTS radical formation at 0.25 mg/ml measured at 5 min relative to trolox
[12] = Antioxidant activity assessed as inhibition of ABTS radical formation at 0.06 mg/ml measured at 10 min relative to trolox
[13] = Antioxidant activity assessed as trolox equivalent of ABTS radical scavenging activity at 5 min
Rattus norvegicus [14] = test: Anti-inflammatory activity in fasted Rattus norvegicus Wistar (rat) assessed as inhibition of carrageenan-induced paw edema at 0.1 mg/kg, ip administered 1 hr prior to carrageenan challenge measured at 3 hr relative to control; details: route intraperitoneal
[15] = Antioxidant activity assessed as inhibition of ABTS radical formation at 0.25 mg/ml measured at 10 min relative to trolox
[16] = Antioxidant activity assessed as inhibition of ABTS radical formation at 0.12 mg/ml measured at 15 min relative to trolox
[17] = Antioxidant activity assessed as inhibition of ABTS radical formation at 0.06 mg/ml measured at 15 min relative to trolox
Rattus norvegicus [18] = test: Anti-inflammatory activity in fasted Rattus norvegicus Wistar (rat) assessed as inhibition of carrageenan-induced paw edema at 1 mg/kg, ip administered 1 hr prior to carrageenan challenge measured at 3 hr relative to control; details: route intraperitoneal
[19] = Antioxidant activity assessed as trolox equivalent of ABTS radical scavenging activity at 20 min
[20] = Antioxidant activity assessed as inhibition of ABTS radical formation at 0.5 mg/ml measured at 10 min relative to trolox
Rattus norvegicus [21] = test: Anti-inflammatory activity in fasted Rattus norvegicus Wistar (rat) assessed as inhibition of carrageenan-induced paw edema at 0.1 mg/kg, ip administered 1 hr prior to carrageenan challenge measured at 1 hr relative to control; details: route intraperitoneal
[22] = Antioxidant activity assessed as inhibition of ABTS radical formation at 0.03 mg/ml measured at 5 min relative to trolox
[23] = Antioxidant activity assessed as inhibition of ABTS radical formation at 0.5 mg/ml measured at 15 min relative to trolox
[24] = Antioxidant activity assessed as inhibition of ABTS radical formation at 0.25 mg/ml measured at 15 min relative to trolox
[25] = Antioxidant activity assessed as inhibition of ABTS radical formation at 1 mg/ml measured at 15 min relative to trolox
[26] = Antioxidant activity assessed as inhibition of ABTS radical formation at 0.5 mg/ml measured at 20 min relative to trolox
[27] = Antioxidant activity assessed as inhibition of ABTS radical formation at 0.25 mg/ml measured at 20 min relative to trolox
[28] = Antioxidant activity assessed as inhibition of ABTS radical formation at 0.06 mg/ml measured at 20 min relative to trolox
Rattus norvegicus [29] = test: Anti-inflammatory activity in fasted Rattus norvegicus Wistar (rat) assessed as inhibition of carrageenan-induced paw edema at 0.5 mg/kg, ip administered 1 hr prior to carrageenan challenge measured at 1 hr relative to control; details: route intraperitoneal
[30] = Antioxidant activity assessed as trolox equivalent of ABTS radical scavenging activity at 15 min
Rattus norvegicus [31] = test: Anti-inflammatory activity in fasted Rattus norvegicus Wistar (rat) assessed as inhibition of carrageenan-induced paw edema at 0.1 mg/kg, ip administered 1 hr prior to carrageenan challenge measured at 5 hr relative to control; details: route intraperitoneal
Rattus norvegicus [32] = test: Anti-inflammatory activity in fasted Rattus norvegicus Wistar (rat) assessed as inhibition of carrageenan-induced paw edema at 0.5 mg/kg, ip administered 1 hr prior to carrageenan challenge measured at 3 hr relative to control; details: route intraperitoneal
[33] = Antioxidant activity assessed as trolox equivalent of ABTS radical scavenging activity at 10 min
[34] = Antioxidant activity assessed as inhibition of ABTS radical formation at 1 mg/ml measured at 20 min relative to trolox
Rattus norvegicus [35] = test: Anti-inflammatory activity in fasted Rattus norvegicus Wistar (rat) assessed as inhibition of carrageenan-induced paw edema at 1 mg/kg, ip administered 1 hr prior to carrageenan challenge measured at 1 hr relative to control; details: route intraperitoneal
[36] = Antioxidant activity assessed as inhibition of ABTS radical formation at 0.12 mg/ml measured at 10 min relative to trolox
[37] = Antioxidant activity assessed as inhibition of ABTS radical formation at 0.12 mg/ml measured at 20 min relative to trolox

O=C1C[C@H](c2ccc(O)cc2)Oc2cc(Oc3c(O)cc4c(c3O)C(=O)C[C@H](c3ccc(O)cc3)O4)cc(O)c21 [MASAZINOFLAVANONE]
Imax [1]: 32.8% | inhibition in vivo at 0.5 mg/kg (Rattus norvegicus [2]): 14% | Imax [3]: 72% | Imax [4]: 16.3% | Imax [5]: 26.7% | inhibition in vivo at 1 mg/kg (Rattus norvegicus [6]): 27% | Imax [7]: 73% | Imax [8]: 59.5% | Imax [9]: 15.1% | Imax [10]: 18.3% | Imax [11]: 40.9% | Imax [12]: 30.4% | Activity [13]: 1.12 mMequiv/mg | inhibition in vivo at 0.1 mg/kg (Rattus norvegicus [14]): 8% | Imax [15]: 47.7% | Imax [16]: 43.2% | Imax [17]: 36.2% | inhibition in vivo at 1 mg/kg (Rattus norvegicus [18]): 31% | Activity [19]: 1.2 mMequiv/mg | Imax [20]: 60.6% | inhibition in vivo at 0.1 mg/kg (Rattus norvegicus [21]): 7% | Imax [22]: 13.3% | Imax [23]: 62.5% | Imax [24]: 49.8% | Imax [25]: 75.5% | Imax [26]: 64.4% | Imax [27]: 52.3% | Imax [28]: 38.4% | inhibition in vivo at 0.5 mg/kg (Rattus norvegicus [29]): 24% | Activity [30]: 1.18 mMequiv/mg | inhibition in vivo at 0.1 mg/kg (Rattus norvegicus [31]): 10% | inhibition in vivo at 0.5 mg/kg (Rattus norvegicus [32]): 25% | Activity [33]: 1.15 mMequiv/mg | Imax [34]: 77.7% | inhibition in vivo at 1 mg/kg (Rattus norvegicus [35]): 31% | Imax [36]: 35.9% | Imax [37]: 45.7%

C[C@@H]1C[C@H]2[C@@H]3CCC4=CC(=O)C=C[C@]4(C)[C@@]3(F)[C@@H](O)C[C@]2(C)[C@@]1(O)C(=O)CO [DEXAMETHASONE]
inhibition in vivo at 1 mg/kg (Rattus norvegicus [6]): 40% | inhibition in vivo at 1 mg/kg (Rattus norvegicus [18]): 30% | inhibition in vivo at 1 mg/kg (Rattus norvegicus [35]): 23%
